Laboratory results published in US7087714B2, “Mu-Opiod receptor splice variant polypeptides” (Memorial Sloan-Kettering Cancer Center, priority 2001, dated 2006).

Experiments:
exon 11-containing mRNA = experiment: RT-PCR of exon 11-containing mRNA in brains of mice given antisense i.c.v.; format: in vivo, mouse; conditions: 10 μg i.c.v. daily for 4 days, brain RNA on fifth day
[1] = tested on: exon 11-like immunoreactivity (E11-LI); experiment: Immunohistochemical labeling (exon 11-like immunoreactivity) in striatum after antisense treatment; format: in vivo, mouse; conditions: 10 μg i.c.v. daily for 4 days, perfused on fifth day; p<0.05
MOR-1 gene = experiment: In vivo antisense mapping, radiant heat tailflick assay of opioid analgesia; design: species or system mice; conditions: 5 μg oligodeoxynucleotide on days 1, 3 and 5, tailflick on day 6

antisense E11A: antisense oligodeoxynucleotide targeting exon 11: 5′GACAGTCACTGGTGCCTATGCAAT3′ (SEQ ID NO 48) (DNA, backbone not given here)
lowering of the levels of exon 11 expression (RT-PCR) (exon 11-containing mRNA): approximately 40% | downregulation of immunohistochemical labeling in the striatum compared to the control group [1]: over 50%

mismatch E11A: mismatch probe based upon the 11a antisense probe: 5′GACGATCACGTGTGCTCATGACAT3′ (SEQ ID NO 50) (listed as DNA, chemistry not given here) [reference compound]
lowering of the levels of exon 11 expression (RT-PCR) (exon 11-containing mRNA): inactive | downregulation of immunohistochemical labeling in the striatum compared to the control group [1]: without effect | effect on opioid (morphine or M6G) analgesia, mismatch control (MOR-1 gene): inactivity

exon 1 probe: antisense probe targeting exon 1: 5′CGCCCCAGCCTCTTCCTCT3′ (SEQ ID NO 47) (listed as DNA, chemistry not given here)
effect on spinal (i.t.) M6G analgesia (MOR-1 gene): inactive | effect on spinal (i.t.) morphine analgesia (MOR-1 gene): not spinally | effect on supraspinal (i.c.v.) M6G analgesia (MOR-1 gene): inactive | effect on supraspinal (i.c.v.) morphine analgesia (MOR-1 gene): reduced
